Experimental data from article PMC11990879, “Anticandidal Activity of Lipopeptides Containing an LL-37-Derived Peptide Fragment KR12” (Molecules, 2025).
Where a SMILES comes first, the peptide text is derived from it. The star is where a group is joined. Myristoyl = CCCCCCCCCCCCCC(=O)*

Assays:
[1] = test system: C. albicans biofilms cultured on polystyrene; assay type: cell-based, Candida albicans; conditions: biofilms cultured on polystyrene
Description: (§1) Fungal strains were purchased from the Polish Collection of Microorganisms (Polish Academy of Science, Wroclaw, Poland). Four reference strains of Candida (C. albicans ATCC 10231, C. glabrata ATCC 15126, C. lypolytica PCM 2680, and C. tropicalis PCM 2680) were cultured on the Dextrose Sabouraud Agar (DSA, Neogen, Lansing, MI, USA). Before performing the assays, the fungi were cultured in a Sabouraud dextrose broth (DSB, Neogen, Lansing, MI, USA) for 48 h under aerobic conditions at 25 °C. Afterward, the fungal cultures were centrifuged (2500 rpm, 10 min) and resuspended in the appropriate liquid medium for appropriate inoculums for the performed assays.
Fungal suspensions in DSB were added to the wells at initial inoculums of ca. 5 × 10^6 CFU/mL and incubated under aerobic conditions, at 25 °C for 24 h, 48 h, and 72 h, in order to grow candidal biofilms of different maturity. After the appropriate time of incubation, the wells were washed with phosphoric buffered (PBS), and fresh RPMI medium supplemented with antifungals and the lipopeptides at graded concentrations (range […]) were added. The fungal biofilms were exposed to the compounds for 24 h (aerobic conditions, 25 °C). After the exposure to antifungals, the content of the wells was aspirated and a 0.01% solution of resazurin (Sigma-Aldrich, St. Louis, MO, USA) in DSB was added. Resazurin (blue) was applied as a cell viability reagent, which upon contact with living cells is reduced to a pink resorufin. The samples with the dye were incubated for 1 h at 25 °C and the absorbance was measured at 570 and 600 nm with a microplate reader (Thermo Fisher Scientific, Waltham, MA, USA). The assays were performed four times on four different days. The results are presented as the means of the measured percentage of metabolic activity (MA) of fungi in the well when compared with positive (sample with Candida in DSB) and negative controls (pure DSB), which were taken as 100% and 0%, respectively. The MA of Candida in the samples was measured according to the following formula:MA(%) = (ΔAbs of sample − ΔAbs of negative control)/(ΔAbs of positive control − ΔAbs of negative control);(1) ΔAbs = absorbance at 570 nm − absorbance at 600 nm.(2)
The MBEC was taken as the lowest concentration of antifungal which allowed us to reduce the metabolism of fungal cells to 10% (or less) of the positive control.

[2] = test system: Candida strains (C. albicans, C. glabrata, C. lipolytica, C. tropicalis); assay type: cell-based; conditions: 48 h
Description: as §1
The strains cultured described in Section 4.1 were suspended in the Roswell Park Memorial Institute 1640 Medium (RPMI, Sigma-Aldrich, St. Louis, MO, USA) at an initial inoculum of ca. 5 × 10^3 CFU/mL. The stock solutions (1024 mg/L) of tested compounds in RPMI were added to 96-well polystyrene plates and diluted serially to well no. 10, leaving wells 11 and 12 for fertility and sterility controls. The tested Candida strains were exposed to graded concentrations (range 0.5–256 mg/L) of the lipopeptides and conventional antifungals (benzalkonium chloride, fluconazole, and nystatin) for 48 h under aerobic conditions at 25 °C. After incubation, the results were read visually.
Then the results were read visually. Both MIC as well as the MFC assays were performed threetimes on three different days.

human red blood cells = conditions: cited from earlier work
Source text: Table 2 Minimum inhibitory concentrations (MIC) and minimum fungicidal concentrations (MFC) determined for peptides and reference antifungals [g/L]. The highest antimicrobial activity is marked in green, medium values in yellow, while the weakest antifungal activity is marked in red. Minimum hemolytic concentration (MHC5%—causing hemolysis of 5% of human red blood cells) determined in previous stu | column: MHC5%

[3] = test system: Staphylococcus aureus biofilm; conditions: previous study; ref [21]; cited from earlier work
Source text: Lipidation has proven to be an effective strategy for improving the microbiological properties of the KR12-NH2 peptide. […] The influence of the structure of substituted fatty acids as well as the lipidation pattern was noticed. Among derivatives containing linear fatty acid residues, an analog with octanoic acid turned out to be the most promising antibacterial agent. The C8-KR12-NH2 peptide (compound IV) inhibited the growth of both Gram-p ...

With CCCCCCCCCCCCCC(=O)N[C@@H](CCCCN)C(=O)N[C@@H](CCCNC(=N)N)C(=O)N[C@H](C(=O)N[C@H](C(=O)N[C@@H](CCC(N)=O)C(=O)N[C@@H](CCCNC(=N)N)C(=O)N[C@H](C(=O)N[C@@H](CCCCN)C(=O)N[C@@H](CC(=O)O)C(=O)N[C@@H](Cc1ccccc1)C(=O)N[C@@H](CC(C)C)C(=O)N[C@@H](CCCNC(=N)N)C(N)=O)[C@@H](C)CC)C(C)C)[C@@H](C)CC [VII, C14-KR12-NH2] (Myristoyl-KRIVQRIKDFLR-NH2) the “MBEC 24 h” value ([1]; 24 h) was 256 mg/L, the “MBEC 48 h” value ([1]; 48 h) was 256 mg/L and the “MBEC 72 h” value ([1]; 72 h) was 512 mg/L. For the same compound, the “MIC, range over the tested strains” value [2] was 4 to 8 µg/mL, the “MHC5% (minimum hemolytic concentration causing hemolysis of 5% of human red blood cells)” value (human red blood cells) was 4 g/L and the “MBEC against Staphylococcus aureus biofilm” value [3] was 64 to 256 mg/L.
